Holding throughout (type): functional
Details in all cases: read-out: ED50 (the source's name)

Test [1] relates to SW626. In words: Cytotoxicity against human SW626 cells.
Test [2] concerns KB. Nature of the test: Cytotoxicity against multidrug-resistant human KB cells in absence of vinblastine.
Test [3] deals with KB. Nature of the test: Cytotoxicity against multidrug-resistant human KB cells in presence of vinblastine.
For test [4], the system named is SK-N-SH. In words: Cytotoxicity against human SK-N-SH cells.
Test [5] relates to LNCaP. Nature of the test: Cytotoxicity against human LNCAP cells.
In test [6] the test system is KB. In words: Cytotoxicity against human KB cells.
The test system of test [7] is P388. Nature of the test: Cytotoxicity against mouse P388 cells.
Test [8] deals with M109. Nature of the test: Cytotoxicity against mouse M109 cells.
The nature of test [9]: Cytotoxicity against human BC1 cells.
The test system of test [10] is Col2. Nature of the test: Cytotoxicity against human Col2 cells.
Test [11] has as its system Lu1. Nature of the test: Cytotoxicity against human Lu1 cells.

In brackets after ≈: the same amount, converted by molar mass.

As to `C[C@H](O)C#CC#CC#CC#CCCCCCCCC(=O)O` [MINQUARTYNOIC ACID], the EC50 in test [1] was 4.1 µg/mL (≈ 14.4 µM); in test [2] it was 4.3 µg/mL (≈ 15.1 µM); in [3] it was 2.8 µg/mL; in test [4] it was 1.4 µg/mL (≈ 4.92 µM); in test [5] it was 1.6 µg/mL (≈ 5.63 µM); in test [6], 3.7 µg/mL (≈ 13 µM). The EC50 amounted to 0.18 µg/mL (≈ 0.633 µM) in test [7]; 3.7 µg/mL (≈ 13 µM) in test [8]; 3.5 µg/mL (≈ 12.3 µM) in [9]; 5.5 µg/mL (≈ 19.3 µM) in [10]; 4.1 µg/mL (≈ 14.4 µM) in test [11].

For the molecule `O=C(O)CCCCCCCC#CC#CC#CC#CC(O)CO` (single isomer, unassigned), the EC50 in test [1] came out at 19.4 µg/mL (≈ 64.6 µM); in test [2], 13.4 µg/mL (≈ 44.6 µM); in test [3], 11.9 µg/mL; in test [4] it was 6.7 µg/mL (≈ 22.3 µM); in [5], 9.2 µg/mL (≈ 30.6 µM); in test [6] it was 2.6 µg/mL (≈ 8.66 µM). Besides, the EC50 in test [8] was 10.1 µg/mL (≈ 33.6 µM); in [9] it was greater than 20 µg/mL; in test [10] it was greater than 20 µg/mL; in test [11] it was 14.6 µg/mL (≈ 48.6 µM).

Take `C[C@H](O)/C=C/C#CC#CC#CCCCCCCCC(=O)O`: the EC50 in [1] was 0.36 µg/mL (≈ 1.26 µM); in [2] it was greater than 20 µg/mL; in test [3] it was greater than 20 µg/mL; in [4] it was 3.7 µg/mL (≈ 12.9 µM); in test [5], 0.3 µg/mL (≈ 1.05 µM); in [6] it was 1.1 µg/mL (≈ 3.84 µM). Further, the EC50 is 5.4 µg/mL (≈ 18.9 µM) in [8], greater than 20 µg/mL in test [9], 9.9 µg/mL (≈ 34.6 µM) in test [10] and greater than 20 µg/mL in test [11].

Source of the values: ChEMBL document CHEMBL1155712, “Cytotoxic polyacetylenes from the twigs of Ochanostachys amentacea” (2001).
